Experimental data: ChEMBL document CHEMBL5518237, “Design of Novel 2-Phenylquinazolin-4-amines as Selective CYP1B1 Inhibitors for Overcoming Paclitaxel Resistance in A549 Cells” (J Med Chem, 2024)
Active and inactive are the calls of the source. No cut-off for these calls is given here.

Legend:
[1] = biological target: T1, CYP1B1 (Homo sapiens, UniProt Q16678); experiment: Inhibition of human recombinant CYP1B1 using 7-ethoxyresorufin as substrate at 0.01 uM preincubated with enzyme for 5 mins followed by fluorescent substrate and NADPH addition and measured after 35 mins by EROD assay; format: ADME; details: recombinant CYP1B1, probe 7-ethoxyresorufin, time 40 min
T1 sequence (Q16678 whole entry): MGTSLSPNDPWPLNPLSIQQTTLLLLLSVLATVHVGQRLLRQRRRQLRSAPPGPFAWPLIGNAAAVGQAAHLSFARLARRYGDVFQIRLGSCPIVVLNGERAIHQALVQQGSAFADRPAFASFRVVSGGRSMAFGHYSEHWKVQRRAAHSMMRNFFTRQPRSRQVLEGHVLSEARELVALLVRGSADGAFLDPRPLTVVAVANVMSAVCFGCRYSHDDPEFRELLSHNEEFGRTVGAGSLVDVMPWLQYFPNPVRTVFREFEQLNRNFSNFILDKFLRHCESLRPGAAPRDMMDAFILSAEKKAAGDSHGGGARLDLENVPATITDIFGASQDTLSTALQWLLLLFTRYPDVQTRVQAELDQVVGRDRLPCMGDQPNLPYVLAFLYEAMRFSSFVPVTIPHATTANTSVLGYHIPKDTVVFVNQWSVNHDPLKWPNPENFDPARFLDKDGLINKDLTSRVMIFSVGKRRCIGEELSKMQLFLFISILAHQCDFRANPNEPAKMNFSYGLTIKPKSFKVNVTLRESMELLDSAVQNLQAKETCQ

[2] = biological target: T1, CYP1B1; experiment: Inhibition of human recombinant CYP1B1 using 7-ethoxyresorufin as substrate at 1 uM preincubated with enzyme for 5 mins followed by fluorescent substrate and NADPH addition and measured after 35 mins by EROD assay; format: ADME; details: recombinant CYP1B1, probe 7-ethoxyresorufin, time 40 min
[3] = biological target: T2, Cytochrome P450 1A1 (Homo sapiens, UniProt P04798); experiment: Inhibition of human recombinant CYP1A1 using 7-ethoxyresorufin as substrate preincubated with enzyme for 5 mins followed by fluorescent substrate and NADPH addition and measured after 15 mins by EROD assay; format: ADME
T2 sequence (P04798 whole entry): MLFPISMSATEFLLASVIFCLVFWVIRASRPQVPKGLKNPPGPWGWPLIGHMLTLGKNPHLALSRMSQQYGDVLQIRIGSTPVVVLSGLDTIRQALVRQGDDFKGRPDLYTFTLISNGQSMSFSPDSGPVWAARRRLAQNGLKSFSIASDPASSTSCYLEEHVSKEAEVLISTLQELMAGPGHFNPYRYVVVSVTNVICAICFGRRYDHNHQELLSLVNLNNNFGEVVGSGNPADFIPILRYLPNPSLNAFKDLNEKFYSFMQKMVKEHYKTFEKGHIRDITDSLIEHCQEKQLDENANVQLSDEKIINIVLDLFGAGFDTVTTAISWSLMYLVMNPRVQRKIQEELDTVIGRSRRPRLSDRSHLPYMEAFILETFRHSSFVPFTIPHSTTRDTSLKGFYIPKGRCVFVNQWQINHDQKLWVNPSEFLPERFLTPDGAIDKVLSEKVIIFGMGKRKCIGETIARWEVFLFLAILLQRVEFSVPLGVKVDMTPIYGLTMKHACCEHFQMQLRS

[4] = tested on: A549; experiment: Reversal of DMBA-stimulated PTX resistance in human A549 cells assessed as decrease in cell viability at 10 uM incubated for 24 hrs in presence of DMBA and paclitaxel by MTT assay; format: functional, cell-based
[5] = tested on: A549; experiment: Induction of apoptosis in DMBA-stimulated PTX resistant human A549 cells assessed as apoptosis rate at 5 uM incubated for 24 hrs by flow cytometry (reference value: 6.67 +/- 1.03%); format: functional
[6] = tested on: A549; experiment: Inhibition of tumor metastasis in DMBA-stimulated PTX resistant human A549 cells assessed as inhibition of cell migration at 10 uM incubated for 48 hrs by wound healing assay; format: functional, cell-based
[7] = tested on: A549; experiment: Inhibition of tumor metastasis in DMBA-stimulated PTX resistant human A549 cells assessed as inhibition of cell invasion at 10 uM incubated for 24 hrs by Transwell assay; format: functional, cell-based
[8] = tested on: A549; experiment: Reversal of DMBA-stimulated PTX resistance in human A549 cells assessed as decrease in cell viability at 1.25 to 10 uM incubated for 24 hrs in presence of DMBA and paclitaxel by MTT assay; format: functional, cell-based; details: dose 1.25-10 µM
[9] = tested on: A549; experiment: Inhibition of tumor metastasis in DMBA-stimulated PTX resistant human A549 cells assessed as inhibition of cell migration by measuring decrease in crawling ability of cells at 2.5 to 10 uM incubated for 48 hrs by wound healing assay; format: functional, cell-based; details: dose 2.5-10 µM
[10] = biological target: T3, Cytochrome P450 1B1 (Homo sapiens, UniProt Q16678); experiment: Inhibition of human recombinant CYP1B1 using 7-ethoxyresorufin as substrate preincubated with enzyme for 5 mins followed by fluorescent substrate and NADPH addition and measured after 35 mins by EROD assay; format: ADME
T3 sequence (Q16678 whole entry): T1 sequence (Q16678 whole entry)

[11] = biological target: T4, Cytochrome P450 1A2 (Homo sapiens, UniProt P05177); experiment: Inhibition of human recombinant CYP1A2 using 7-ethoxyresorufin as substrate preincubated with enzyme for 5 mins followed by fluorescent substrate and NADPH addition and measured after 50 mins by EROD assay; format: ADME
T4 sequence (P05177 whole entry): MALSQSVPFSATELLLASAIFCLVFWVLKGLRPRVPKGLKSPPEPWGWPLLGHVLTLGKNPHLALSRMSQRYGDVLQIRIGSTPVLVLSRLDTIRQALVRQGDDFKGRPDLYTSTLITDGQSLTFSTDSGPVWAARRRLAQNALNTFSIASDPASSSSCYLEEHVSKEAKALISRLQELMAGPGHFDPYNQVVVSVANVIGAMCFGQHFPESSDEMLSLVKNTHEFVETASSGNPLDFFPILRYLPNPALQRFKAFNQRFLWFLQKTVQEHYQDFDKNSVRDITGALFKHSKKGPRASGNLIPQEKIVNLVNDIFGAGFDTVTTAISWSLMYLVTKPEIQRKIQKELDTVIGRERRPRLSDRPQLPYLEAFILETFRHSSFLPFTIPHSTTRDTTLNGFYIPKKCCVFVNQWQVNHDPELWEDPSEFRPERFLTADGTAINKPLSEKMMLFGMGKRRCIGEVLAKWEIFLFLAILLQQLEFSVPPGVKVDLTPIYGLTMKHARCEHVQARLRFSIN

[12] = Selectivity ratio of IC50 for Inhibition of human recombinant CYP1A1 to IC50 for Inhibition of human recombinant CYP1B1; format: ADME; details: recombinant enzyme
[13] = Selectivity ratio of IC50 for Inhibition of human recombinant CYP1A2 to IC50 for Inhibition of human recombinant CYP1B1; format: ADME; details: recombinant enzyme
[14] = n-Octanol/PBS partition coefficient, log D of the radiolabeled compound at 0.37 MBq at pH 7.4 by gamma-counting analysis; format: physicochemical; details: n-octanol/PBS, read-out: logD
[15] = Drug uptake in human HCT-116 cells using radiolabeled compound at 0.037 MBq incubated for 120 mins by gamma-counting analysis; format: ADME, cell-based; details: hct-116, 2 h
[16] = Drug uptake in human A549 cells using radiolabeled compound at 0.037 MBq incubated for 120 mins by gamma-counting analysis; format: ADME, cell-based; details: a549, 2 h
[17] = Drug uptake in human HEK293T cells using radiolabeled compound at 0.037 MBq incubated for 120 mins by gamma-counting analysis; format: ADME, cell-based; details: hek-293t, 2 h
[18] = n-Octanol/water partition coefficient, logP of the compound by HPLC analysis; format: physicochemical
[19] = tested on: A549; experiment: Cytotoxicity against human A549 cells assessed as reduction in cell viability at 0.625 to 20 uM incubated for 48 hrs by MTT assay; format: toxicity, cell-based; details: a549, 48 h, dose 0.625-20 µM
[20] = tested on: HEK-293T; experiment: Cytotoxicity against human HEK293T cells assessed as reduction in cell viability at 0.625 to 20 uM incubated for 48 hrs by MTT assay; format: toxicity, cell-based; details: dose 0.625-20 µM

SMILES | inhibition at 35 min, 0.01 µM [1] | inhibition at 35 min, 1 µM [2] | IC50 [3] | Activity [5] | IC50 [10] | IC50 [11] | Ratio IC50 [12] | Ratio IC50 [13] | Activity [19] | Activity [20] | other results
O=c1cc(-c2ccccc2)oc2c1ccc1ccccc12 [ALPHA-NAPHTHOFLAVONE] | 61% | 95.1% | 86.7 nM | 15.53% |  |  |  |  |  |  | Activity [4]: Active; inhibition [6]: Active; inhibition [7]: Active
CNc1nc(-c2ccc(I)cc2)nc2ccccc12 |  |  |  |  |  |  |  |  |  |  | Activity [8]: Active; inhibition [9]: Active
FCCNc1nc(-c2ccc(I)cc2)nc2ccccc12 |  |  | 36.7 nM |  | 0.24 nM | 727 nM | 151.87 | 3029.17 |  |  | logD [14]: 3.34; Drug uptake [15]: Active; Drug uptake [16]: Active; Drug uptake [17]: Active
CCNc1nc(-c2ccc(I)cc2)nc2ccccc12.Cl | 93.7% | 95.2% | 85.8 nM | 26.15% |  | 1500 nM | 2.07 10^6No_unit |  | Non-Toxic | Non-Toxic | logP ([18]; n-octanol/water, read-out: logP): 3.81
CNc1nc(-c2ccc(I)cc2)nc2ccccc12.Cl | 96.6% | 97.1% | 27.4 nM | 32.84% | 0.000168 nM | 827 nM | 1.63 10^5No_unit | 4.92 10^6No_unit | Non-Toxic | Non-Toxic | logP ([18]; octanol/water): 3.15
